Source: patent JP2011231022A, “イミダゾロン誘導体” (Ajinomoto Co Inc, priority 2010, dated 2011)
Like-named read-outs stand apart in the source and are kept apart here.

How the values were obtained:
[1] = system: rat isolated blood vessel (ラット摘出血管); assay: EC50 of vasorelaxation in phenylephrine-precontracted isolated rat aorta rings (Example 2); type: cell-based
aorta ring (大動脈リング) [2] = assay: Endothelium-derived NO mechanism study in isolated rat aorta rings: endothelium removal and inhibitors (Example 3); type: cell-based; conditions: for relaxation of phenylephrine contraction with C-PTIO: NO scavenger C-PTIO 300 μM; for relaxation of phenylephrine contraction with C-PTIO / relaxation of phenylephrine contraction with L-NAME / relaxation of phenylephrine contraction with indomethacin / relaxation of phenylephrine contraction with ODQ: 15 min pretreatment; for relaxation of phenylephrine contraction with L-NAME: NOS inhibitor L-NAME 100 μM; for vasorelaxing action after endothelium removal: aorta ring with endothelium mechanically removed; for relaxation of phenylephrine contraction with indomethacin: cyclooxygenase inhibitor indomethacin 10 μM; for relaxation of phenylephrine contraction with ODQ: soluble guanylate cyclase inhibitor ODQ 1 μM
aorta ring (大動脈リング) [3] = assay: Involvement of PI3K in relaxation of isolated rat aorta rings, wortmannin pretreatment (Example 4); type: cell-based; conditions: for relaxation rate: wortmannin (WO) 200 nM, 15 min pretreatment
[4] = Oral absorption in fasted male ICR mice, plasma concentration by LC/MS (Example 7); type: in vivo; conditions: mouse (ICR male, fasted), 100 mg/kg oral
[5] = system: phenylephrine-induced hypertensive model rat (フェニレフリン昇圧モデルラット); assay: Hypotensive action in phenylephrine-induced hypertensive model rats (Example 8); type: in vivo; conditions: Wistar male rat; 40 mg/kg intravenous; phenylephrine 75 μg/kg/min
[6] = system: eNOS serine 1177 residue (eNOSセリン1177残基); assay: Phosphorylation of eNOS serine 1177 in isolated rat thoracic aorta rings (Examples 5 and 6); type: cell-based; conditions: 5 min; for enhancement of eNOS serine 1177 phosphorylation: without wortmannin
[7] = system: Akt serine 473 residue (Aktセリン473残基); assay: Phosphorylation of Akt serine 473 in isolated rat thoracic aorta rings (Examples 5 and 6); type: cell-based; conditions: 5 min; for enhancement of Akt serine 473 phosphorylation: without wortmannin
[8] = system: rat isolated blood vessel, thoracic aorta ring (ラット摘出血管、大動脈リング); assay: Vasorelaxation of phenylephrine-precontracted isolated rat thoracic aorta rings (Example 1, screening); type: cell-based; conditions: 100 μM; 1 μM phenylephrine precontraction; endothelium intact
[9] = 100〜500 μM, wortmannin (WO) 200 nM, 20 min pretreatment
[10] = concentration giving 50% relaxation of phenylephrine contraction, 1〜100 μM, logistic method, read-out: EC50
[11] = 100 μM or 300 μM, wortmannin (WO) pretreatment

CC1N=C(NCCC[C@H](N)C(=O)O)NC1=O (stereo partly shown) [I−1, Nδ−(5−ヒドロ−5−メチル−4−イミダゾロン−2−イル)−L−オルニチン]
EC50 [1]: 13 µM
relaxation of phenylephrine contraction with C-PTIO (aorta ring (大動脈リング) [2]): 血管の弛緩が大幅に減弱した
relaxation of phenylephrine contraction with L-NAME (aorta ring (大動脈リング) [2]): 血管の弛緩がほとんど見られなかった
vasorelaxing action after endothelium removal (aorta ring (大動脈リング) [2]): 完全に消失した
relaxation of phenylephrine contraction with indomethacin (aorta ring (大動脈リング) [2]): 血管の弛緩に全く影響を与えなかった
relaxation of phenylephrine contraction with ODQ (aorta ring (大動脈リング) [2]): 血管の弛緩が大幅に減弱した
relaxation rate (aorta ring (大動脈リング) [3]; 50 μM): 10±3%
inhibition at 50 µM (aorta ring (大動脈リング) [3]; Rattus norvegicus, read-out: relaxation rate): 93 ± 3%
Cmax at 0.25 h ([4]; at 15 min after dosing, read-out: maximum plasma concentration): 174 µM
Tmax ([4]; read-out: time of maximum plasma concentration (converted)): 15 min
maximum decrease of mean blood pressure [5]: 12.7 mmHg
time from start of administration to onset of hypotensive action [5]: ~1 min

CC1(CO)N=C(NCCC[C@H](N)C(=O)O)NC1=O (stereo partly shown) [I−2, Nδ−(5−メチル−5−ヒドロキシメチル−4−イミダゾロン−2−イル)−L−オルニチン]
enhancement of eNOS serine 1177 phosphorylation ([6]; 100〜500 μM): 濃度依存的にeNOSセリン1177残基のリン酸化亢進作用を示した
eNOS serine 1177 phosphorylation after wortmannin pretreatment [6, 9]: 完全に抑制された
enhancement of Akt serine 473 phosphorylation ([7]; 100〜500 μM): Aktセリン473残基のリン酸化亢進作用を示した
Akt serine 473 phosphorylation after wortmannin pretreatment [7, 9]: 完全に抑制され

N[C@@H](CCCNC1=NC(CCO)C(=O)N1)C(=O)O (stereo partly shown) [I−3, Nδ−[5−ヒドロ−5−(2−ヒドロキシエチル)−4−イミダゾロン−2−イル]−L−オルニチン]
EC50 [1, 10]: 71 µM
relaxation of phenylephrine contraction with C-PTIO (aorta ring (大動脈リング) [2]): 血管の弛緩が大幅に減弱した
relaxation of phenylephrine contraction with L-NAME (aorta ring (大動脈リング) [2]): 血管の弛緩がほとんど見られなかった
vasorelaxing action after endothelium removal (aorta ring (大動脈リング) [2]): 完全に消失した
relaxation of phenylephrine contraction with indomethacin (aorta ring (大動脈リング) [2]): 血管の弛緩に全く影響を与えなかった
relaxation of phenylephrine contraction with ODQ (aorta ring (大動脈リング) [2]): 血管の弛緩が大幅に減弱した
relaxation rate (aorta ring (大動脈リング) [3]; 100 μ (so in the source)): 3±3%
inhibition at 100 µM (aorta ring (大動脈リング) [3]; Rattus norvegicus, 100 μ (so in the source), untreated control (no wortmannin), read-out: relaxation rate): 62 ± 8%
enhancement of eNOS serine 1177 phosphorylation ([6]; 100〜500 μM): 濃度依存的にeNOSセリン1177残基のリン酸化亢進作用を示した
eNOS serine 1177 phosphorylation after wortmannin pretreatment [6, 9]: 完全に抑制された
enhancement of Akt serine 473 phosphorylation ([7]; 100〜500 μM): Aktセリン473残基のリン酸化亢進作用を示した
Akt serine 473 phosphorylation after wortmannin pretreatment [7, 9]: 完全に抑制され

N[C@@H](CCCNC1=NC(CC(O)C(O)CO)C(=O)N1)C(=O)O (stereo partly shown) [I−7, Nδ−[5−ヒドロ−5−(2,3,4−トリヒドロキシブチル)−4−イミダゾロン−2−イル]−L−オルニチン]
EC50 [1, 10]: 25 µM
relaxation of phenylephrine contraction with C-PTIO (aorta ring (大動脈リング) [2]): 血管の弛緩が大幅に減弱した
relaxation of phenylephrine contraction with L-NAME (aorta ring (大動脈リング) [2]): 血管の弛緩がほとんど見られなかった
vasorelaxing action after endothelium removal (aorta ring (大動脈リング) [2]): 完全に消失した
relaxation of phenylephrine contraction with indomethacin (aorta ring (大動脈リング) [2]): 血管の弛緩に全く影響を与えなかった
relaxation of phenylephrine contraction with ODQ (aorta ring (大動脈リング) [2]): 血管の弛緩が大幅に減弱した
relaxation rate (aorta ring (大動脈リング) [3]; 50 μM): 5±2%
inhibition at 50 µM (aorta ring (大動脈リング) [3]; Rattus norvegicus, 50 μM, untreated control (no wortmannin), read-out: relaxation rate): 90 ± 5%
eNOS serine 1177 phosphorylation after wortmannin pretreatment [6, 11]: 完全に抑制された
enhancement of eNOS serine 1177 phosphorylation ([6]; 300 μM): eNOSセリン1177残基のリン酸化亢進作用を示した
Akt serine 473 phosphorylation after wortmannin pretreatment [7, 11]: 完全に抑制され
enhancement of Akt serine 473 phosphorylation ([7]; 300 μM): Aktセリン473残基のリン酸化亢進作用を示した

N=C(N)NCCC[C@H](N)C(=O)O [L−アルギニン]
vasodilating action (relaxation of phenylephrine contraction) [8]: 血管拡張作用が見出せなかった

OC[C@H]1OC(O)[C@H](O)[C@@H](O)[C@@H]1O (stereo partly shown) [グルコース]
vasodilating action (relaxation of phenylephrine contraction) [8]: 血管拡張作用が見出せなかった

N=C(N)NCCC[C@H](NCC(=O)[C@@H](O)[C@H](O)[C@H](O)CO)C(=O)O [フラクトシルアルギニン]
vasodilating action (relaxation of phenylephrine contraction) [8]: 血管拡張作用が見出せなかった
